Measurements taken from patent publication US8017612B2, “Piperazine compound and use thereof as a HCV polymerase inhibitor” (priority 2006, dated 2011).
Structures can show the parent of a compound that is named as a salt.

What was measured:
[1] = target: T1, HCV polymerase (NS5B) type 1a (Hepatitis C virus genotype 1a, UniProt P26664); assay: Assay of enzyme (HCV polymerase) inhibitory activity, type 1a enzyme; format: biochemical, HCV type 1a (cloned from the blood of patients)
T1 construct: made in house; host or cells: Escherichia coli (by the 'similar method' of the 1b enzyme)
How it was run: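 Patient-derived type 1a NS5B (C-terminal 47-aa deletion, His-tagged, E. coli-expressed) at 1.5 μg/ml was reacted with 5 μg/ml 3′UTR-containing substrate RNA, 50 μM ATP/GTP/CTP, 2 μM UTP plus [3H]UTP, pH 7.5, 25° C for 60 min. TCA-precipitated RNA radioactivity was counted; IC50 from ± compound.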

[2] = target: T2, HCV polymerase (NS5B) type 1b (Hepatitis C virus genotype 1b, UniProt P26663); assay: Assay of enzyme (HCV polymerase) inhibitory activity, type 1b enzyme; format: biochemical, HCV BK strain (type 1b)
T2 construct: a region encoding NS5B (J Virol 1991 March, 65(3), 1105-13, 544 amino acids after deletion of 47 amino acids on the C-terminal); 6xHis (C); made in house; host or cells: Escherichia coli
How it was run: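 NS5B from HCV BK strain (type 1b), C-terminal 47 aa deleted, C-terminal His6-tagged, E. coli-expressed, 0.5 μg/ml, with ~450 nt substrate RNA carrying the 3′ UTR (polyU, 3′X) at 5 μg/ml. Incubation 60 min at 25 °C with 50 μM ATP/GTP/CTP, 2 μM UTP plus [3H]UTP, pH 7.5 Tris.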

[3] = HCV polymerase inhibitory activity (IC50), 1a, type 1a enzyme 1.5 μg/ml, 25° C., 60 min
[4] = HCV polymerase inhibitory activity (IC50), 1b, type 1b enzyme 0.5 μg/ml, 25° C., 60 min
[5] = HCV polymerase inhibitory activity IC50, 1a, type 1a enzyme
[6] = HCV polymerase inhibitory activity IC50, 1b, type 1b enzyme

With `COC(=O)c1nc(Cl)c(N2CCN(S(=O)(=O)c3ccc(C(F)(F)F)cc3)[C@@H](C(=O)NCc3ccc(C(C)C)cc3)C2)nc1N` [Example 420, (R)-6′-amino-3′-chloro-3-(4-isopropyl-benzylcarbamoyl)-4-(4-trifluoromethyl-benzenesulfonyl)-3,4,5,6-tetrahydro-2H-[1,2′]bipyrazinyl-5′-carboxylic acid methyl ester] the IC50 [1, 3] was > 1000 nM and the IC50 [2, 4] was > 1000 nM.

`Cc1nc(N2CCN(S(=O)(=O)c3ccc(OC(F)(F)F)cc3)[C@@H](C(=O)NCc3ccc(C(C)(C)C)cc3)C2)sc1C(=O)O` [Example 367, 2-[(R)-3-(4-tert-butyl-benzylcarbamoyl)-4-(4-trifluoromethoxy-benzenesulfonyl)-piperazin-1-yl]-4-methyl-thiazole-5-carboxylic acid] was tested, and the IC50 [1, 3] was < 100 nM and the IC50 [2, 4] was < 100 nM.

`O=C(NCc1ccc(OC(F)(F)F)cc1)[C@H]1CN(c2nc3c(=O)[nH][nH]c(=O)c3s2)CCN1S(=O)(=O)c1ccc(OC(F)(F)F)cc1` [Example 803, (R)-4-(4,7-dioxo-4,5,6,7-tetrahydro-thiazolo[4,5-d]pyridazin-2-yl)-1-(4-trifluoromethoxy-benzenesulfonyl)-piperazine-2-carboxylic acid 4-trifluoromethoxy-benzylamide] was tested, and the IC50 [1, 5] was < 100 nM and the IC50 [2, 6] was < 100 nM.

In the case of `CC(=O)N1CCN(S(=O)(=O)c2ccc(C(C)C)cc2)[C@@H](C(=O)NCc2ccc(C(F)(F)F)cc2)C1` [Example 1116, (R)-4-acetyl-1-(4-isopropyl-benzenesulfonyl)-piperazine-2-carboxylic acid 4-trifluoromethyl-benzylamide], the IC50 [1, 5] is reported as 100 to 1000 nM and the IC50 [2, 6] is reported as 100 to 1000 nM.

With `CN(C)c1ccc(CNC(=O)C2CNCCN2S(=O)(=O)c2ccc(I)cc2)cc1` (stereo not shown) [Example 84, 1-(4-iodo-benzenesulfonyl)-piperazine-2-carboxylic acid 4-dimethylamino-benzylamide hydrochloride] the IC50 [1, 3] was > 1000 nM and the IC50 [2, 4] was > 1000 nM.

In the case of `CCCc1ccc(CNC(=O)[C@H]2CN(c3cnc4cncc(C(=O)O)c4n3)CCN2S(=O)(=O)c2ccc(Cl)cc2)cc1` [Example 845, 2-[(R)-4-(4-chloro-benzenesulfonyl)-3-(4-propyl-benzylcarbamoyl)-piperazin-1-yl]-pyrido[3,4-b]pyrazine-8-carboxylic acid], the IC50 [1, 5] is reported as < 100 nM and the IC50 [2, 6] is reported as < 100 nM.

With `O=C(NCc1ccc(OC(F)(F)F)cc1)[C@H]1CN(c2nc3ncncc3s2)CCN1S(=O)(=O)c1ccc(OC(F)(F)C(F)F)cc1` [Example 960, (R)-1-[4-(1,1,2,2-tetrafluoro-ethoxy)-benzenesulfonyl]-4-thiazolo[4,5-d]pyrimidin-2-yl-piperazine-2-carboxylic acid 4-trifluoromethoxy-benzylamide] the IC50 [1, 5] was < 100 nM and the IC50 [2, 6] was < 100 nM.

With `CCCc1ccc(S(=O)(=O)N2CCN(C(C)=O)C[C@@H]2C(=O)NCc2ccc(C(C)C)cc2)cc1` [Example 205, (R)-4-acetyl-1-(4-propyl-benzenesulfonyl)-piperazine-2-carboxylic acid 4-isopropyl-benzylamide] the IC50 [1, 3] was < 100 nM and the IC50 [2, 4] was < 100 nM.

`CCCc1ccc(CNC(=O)[C@H]2CN(C(=O)Cn3ccnc3)CCN2S(=O)(=O)c2ccc(OC(F)(F)F)cc2)cc1` [Example 462, (R)-4-(2-imidazol-1-yl-acetyl)-1-(4-trifluoromethoxy-benzenesulfonyl)-piperazine-2-carboxylic acid 4-propyl-benzylamide] was tested, and the IC50 [1, 3] was < 100 nM and the IC50 [2, 4] was < 100 nM.

In the case of `COc1ccc(CC(=O)N2CCN(S(=O)(=O)c3ccc(C(F)(F)F)cc3)[C@@H](C(=O)NCc3ccc(C(C)C)cc3)C2)cc1` [Example 266, (R)-4-[2-(4-methoxy-phenyl)-acetyl]-1-(4-trifluoromethyl-benzenesulfonyl)-piperazine-2-carboxylic acid 4-isopropyl-benzylamide], the IC50 [1, 3] is reported as 100 to 1000 nM and the IC50 [2, 4] is reported as 100 to 1000 nM.

For `CC(C)c1ccc(CNC(=O)[C@H]2CN(C3=C(c4ccccc4)C(=O)NC3=O)CCN2S(=O)(=O)c2ccc(C(F)(F)F)cc2)cc1` [Example 148, (R)-4-(2,5-dioxo-4-phenyl-2,5-dihydro-1H-pyrrol-3-yl)-1-(4-trifluoromethyl-benzenesulfonyl)-piperazine-2-carboxylic acid 4-isopropyl-benzylamide], the IC50 [1, 3] was > 1000 nM and the IC50 [2, 4] was > 1000 nM.

In the case of `CCCc1ccc(CNC(=O)[C@H]2CN(c3nc(C)c(CN4CCCC4)s3)CCN2S(=O)(=O)c2ccc(OC(F)(F)F)cc2)cc1` [Example 531, (R)-4-(4-methyl-5-pyrrolidin-1-ylmethyl-thiazol-2-yl)-1-(4-trifluoromethoxy-benzenesulfonyl)-piperazine-2-carboxylic acid 4-propyl-benzylamide], the IC50 [1, 3] is reported as < 100 nM and the IC50 [2, 4] is reported as < 100 nM.

For `CC(C)c1ccc(CNC(=O)[C@H]2CN(c3cc(C(=O)O)n(C)n3)CCN2S(=O)(=O)c2ccc(C(F)(F)F)cc2)cc1` [Example 445, 5-[(R)-3-(4-isopropyl-benzylcarbamoyl)-4-(4-trifluoromethyl-benzenesulfonyl)-piperazin-1-yl]-2-methyl-2H-pyrazole-3-carboxylic acid], the IC50 [1, 3] was 100 to 1000 nM and the IC50 [2, 4] was < 100 nM.

For `CCC(F)(F)c1ccc(CNC(=O)[C@H]2CN(c3cnc4cncnc4n3)CCN2S(=O)(=O)c2ccc(-c3cccc(C(=O)O)c3)cc2)cc1` [Example 753, 4′-{(R)-2-[4-(1,1-difluoro-propyl)-benzylcarbamoyl]-4-pteridin-7-yl-piperazine-1-sulfonyl}-biphenyl-3-carboxylic acid], the IC50 [1, 5] was < 100 nM and the IC50 [2, 6] was < 100 nM.

`CC(=O)N1CCN(S(=O)(=O)c2ccc(OC(F)(F)F)cc2)[C@@H](C(=O)NCC2CCNCC2)C1` [Example 654, (R)-4-acetyl-1-(4-trifluoromethoxy-benzenesulfonyl)-piperazine-2-carboxylic acid (piperidin-4-ylmethyl)-amide hydrochloride] was tested, and the IC50 [1, 3] was > 1000 nM and the IC50 [2, 4] was > 1000 nM.

With `CCN(C)c1ccc(CNC(=O)[C@H]2CN(c3nc(Cl)c(C(=O)O)s3)CCN2S(=O)(=O)c2ccc(OC(F)(F)F)cc2)cc1` [Example 1093, 4-chloro-2-[(R)-3-[4-(ethyl-methyl-amino)-benzylcarbamoyl]-4-(4-trifluoromethoxy-benzenesulfonyl)-piperazin-1-yl]-thiazole-5-carboxylic acid] the IC50 [1, 5] was < 100 nM and the IC50 [2, 6] was < 100 nM.

For `CCC(F)(F)c1ccc(CNC(=O)[C@H]2CN(C(=O)Nc3nn[nH]n3)CCN2S(=O)(=O)c2ccc(OC(F)(F)F)cc2)cc1` [Example 566, (R)-4-(4-trifluoromethoxy-benzenesulfonyl)-piperazine-1,3-dicarboxylic acid 3-[4-(1,1-difluoro-propyl)-benzylamide] 1-[(2H-tetrazol-5-yl)-amide]], the IC50 [1, 3] was 100 to 1000 nM and the IC50 [2, 4] was < 100 nM.

In the case of `CC(=O)N1CCN(S(=O)(=O)c2ccc(C(C)C)cc2)C(C(=O)NCc2ccc(-c3cccc(Cl)c3)cc2)C1` (stereo not shown) [Example 141, 4-acetyl-1-(4-isopropyl-benzenesulfonyl)-piperazine-2-carboxylic acid (3′-chloro-biphenyl-4-ylmethyl)-amide], the IC50 [1, 3] is reported as > 1000 nM and the IC50 [2, 4] is reported as > 1000 nM.

With `CCC(F)(F)c1ccc(CNC(=O)[C@H]2CN(c3nc4cccnc4s3)CCN2S(=O)(=O)c2ccc(OC(F)(F)F)cc2)cc1` [Example 739, (R)-4-thiazolo[5,4-b]pyridin-2-yl-1-(4-trifluoromethoxy-benzenesulfonyl)-piperazine-2-carboxylic acid 4-(1,1-difluoro-propyl)-benzylamide] the IC50 [1, 5] was < 100 nM and the IC50 [2, 6] was < 100 nM.

In the case of `COC(=O)c1cccc(NC(=O)N2CCN(S(=O)(=O)c3ccc(C(F)(F)F)cc3)[C@@H](C(=O)NCc3ccc(C(C)C)cc3)C2)c1` [Example 275, 3-{[(R)-3-(4-isopropyl-benzylcarbamoyl)-4-(4-trifluoromethyl-benzenesulfonyl)-piperazine-1-carbonyl]-amino}-benzoic acid methyl ester], the IC50 [1, 3] is reported as 100 to 1000 nM and the IC50 [2, 4] is reported as 100 to 1000 nM.

With `Cc1ncc2sc(N3CCN(S(=O)(=O)c4ccc(OC(F)(F)C(F)F)cc4)[C@@H](C(=O)NCc4ccc(OC(F)F)cc4)C3)nc2n1` [Example 1039, (R)-4-(5-methyl-thiazolo[4,5-d]pyrimidin-2-yl)-1-[4-(1,1,2,2-tetrafluoro-ethoxy)-benzenesulfonyl]-piperazine-2-carboxylic acid 4-difluoromethoxy-benzylamide] the IC50 [1, 5] was < 100 nM and the IC50 [2, 6] was < 100 nM.

`CCCc1ccc(CNC(=O)[C@H]2CN(C(=O)Nc3nc(CCO)cs3)CCN2S(=O)(=O)c2ccc(OC(F)(F)F)cc2)cc1` [Example 476, (R)-4-(4-trifluoromethoxy-benzenesulfonyl)-piperazine-1,3-dicarboxylic acid 1-{[4-(2-hydroxy-ethyl)-thiazol-2-yl]-amide} 3-(4-propyl-benzylamide)] showed an IC50 [1, 3] of 100 to 1000 nM and an IC50 [2, 4] of 100 to 1000 nM.

For `CC(C)c1ccc(CNC(=O)[C@H]2CN(C(=O)Cn3nnnc3CC(=O)O)CCN2S(=O)(=O)c2ccc(C(F)(F)F)cc2)cc1` [Example 312, (1-{2-[(R)-3-(4-isopropyl-benzylcarbamoyl)-4-(4-trifluoromethyl-benzenesulfonyl)-piperazin-1-yl]-2-oxo-ethyl}-1H-tetrazol-5-yl)-acetic acid], the IC50 [1, 3] was > 1000 nM and the IC50 [2, 4] was 100 to 1000 nM.
